Assay results: US12448389B2, “BRM targeting compounds and associated methods of use” (Prelude Therapeutics Incorporated, priority 2020, dated 2025)

Legend:
[1] = target: T1, SMARCA2-HiBiT (Homo sapiens, UniProt P51531); test: SMARCA2 HiBiT degradation assay in HeLa cells; format: cell-based; settings: 18 hours incubation; for DC50: read-out: HeLa_HiBit-SM2 DC50; for Dmax: HeLa, read-out: HeLa-HiBit-SM2 Dmax (%)
T1 construct: SMARCA2-HiBiT knock-in Hela monoclonal cell (CS302366); host or cells: HeLa monoclonal knock-in line (CRISPR HiBiT knock-in at the endogenous locus, heterozygous)
T1 sequence (P51531 whole entry): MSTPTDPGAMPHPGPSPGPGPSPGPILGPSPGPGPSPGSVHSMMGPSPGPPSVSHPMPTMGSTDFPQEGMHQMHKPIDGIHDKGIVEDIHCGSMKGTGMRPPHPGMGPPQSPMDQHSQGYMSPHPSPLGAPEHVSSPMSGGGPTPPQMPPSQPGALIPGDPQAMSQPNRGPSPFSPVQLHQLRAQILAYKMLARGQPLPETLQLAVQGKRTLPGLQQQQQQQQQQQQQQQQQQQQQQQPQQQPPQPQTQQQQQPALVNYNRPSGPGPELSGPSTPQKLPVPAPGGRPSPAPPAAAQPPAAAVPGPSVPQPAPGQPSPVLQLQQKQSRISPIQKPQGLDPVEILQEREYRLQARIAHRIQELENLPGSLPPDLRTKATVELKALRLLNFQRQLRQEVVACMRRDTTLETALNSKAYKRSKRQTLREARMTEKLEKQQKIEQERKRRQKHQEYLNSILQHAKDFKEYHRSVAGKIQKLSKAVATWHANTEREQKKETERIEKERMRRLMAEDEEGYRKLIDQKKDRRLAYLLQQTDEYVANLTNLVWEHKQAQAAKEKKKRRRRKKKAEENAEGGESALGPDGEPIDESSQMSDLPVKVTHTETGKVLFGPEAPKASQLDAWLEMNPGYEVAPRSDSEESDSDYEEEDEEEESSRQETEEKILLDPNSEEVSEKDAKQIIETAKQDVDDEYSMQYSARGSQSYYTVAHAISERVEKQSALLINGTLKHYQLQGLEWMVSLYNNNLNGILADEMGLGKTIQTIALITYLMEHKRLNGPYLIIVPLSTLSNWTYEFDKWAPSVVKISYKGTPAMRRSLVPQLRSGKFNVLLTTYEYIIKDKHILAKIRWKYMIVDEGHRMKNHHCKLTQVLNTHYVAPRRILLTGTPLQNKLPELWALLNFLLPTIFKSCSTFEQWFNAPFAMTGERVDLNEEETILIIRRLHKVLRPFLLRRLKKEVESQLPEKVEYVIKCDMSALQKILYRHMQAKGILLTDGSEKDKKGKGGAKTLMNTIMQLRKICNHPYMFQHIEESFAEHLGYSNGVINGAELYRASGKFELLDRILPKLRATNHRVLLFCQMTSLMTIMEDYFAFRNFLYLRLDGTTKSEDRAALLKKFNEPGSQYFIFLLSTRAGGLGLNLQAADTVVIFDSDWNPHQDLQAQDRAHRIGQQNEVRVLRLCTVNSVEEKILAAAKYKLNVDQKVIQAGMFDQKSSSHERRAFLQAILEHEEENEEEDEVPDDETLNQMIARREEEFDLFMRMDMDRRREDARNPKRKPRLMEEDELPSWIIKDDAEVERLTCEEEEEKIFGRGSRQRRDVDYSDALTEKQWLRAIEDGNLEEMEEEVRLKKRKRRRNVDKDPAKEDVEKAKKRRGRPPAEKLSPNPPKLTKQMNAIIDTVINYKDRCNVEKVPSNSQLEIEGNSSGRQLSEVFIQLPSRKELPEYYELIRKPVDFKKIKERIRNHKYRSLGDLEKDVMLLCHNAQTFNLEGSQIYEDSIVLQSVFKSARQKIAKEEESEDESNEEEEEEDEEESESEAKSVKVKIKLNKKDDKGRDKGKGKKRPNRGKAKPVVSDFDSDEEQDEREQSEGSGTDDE
In short: (§1)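 HeLa monoclonal lines with heterozygous HiBiT knock-in were seeded at 2500 cells/well in EMEM with 10% FBS and treated with compound for 18 h at 37 °C. Remaining tagged protein was measured by Nano-Glo HiBiT lytic luminescence after 30–60 min at RT, and values came from curve fitting.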

[2] = target: T2, SMARCA4-HiBiT (Homo sapiens, UniProt P51532); test: SMARCA4 HiBiT degradation assay in HeLa cells; format: cell-based; settings: 18 hours incubation; for DC50: read-out: HeLa-HiBit-SM4 DC50; for Dmax: HeLa, read-out: HeLa-HiBit-SM4 Dmax (%)
T2 construct: SMARCA4-HiBiT knock-in Hela monoclonal cell (CS3023226); host or cells: HeLa monoclonal knock-in line (CRISPR HiBiT knock-in at the endogenous locus, heterozygous)
T2 sequence (P51532 whole entry): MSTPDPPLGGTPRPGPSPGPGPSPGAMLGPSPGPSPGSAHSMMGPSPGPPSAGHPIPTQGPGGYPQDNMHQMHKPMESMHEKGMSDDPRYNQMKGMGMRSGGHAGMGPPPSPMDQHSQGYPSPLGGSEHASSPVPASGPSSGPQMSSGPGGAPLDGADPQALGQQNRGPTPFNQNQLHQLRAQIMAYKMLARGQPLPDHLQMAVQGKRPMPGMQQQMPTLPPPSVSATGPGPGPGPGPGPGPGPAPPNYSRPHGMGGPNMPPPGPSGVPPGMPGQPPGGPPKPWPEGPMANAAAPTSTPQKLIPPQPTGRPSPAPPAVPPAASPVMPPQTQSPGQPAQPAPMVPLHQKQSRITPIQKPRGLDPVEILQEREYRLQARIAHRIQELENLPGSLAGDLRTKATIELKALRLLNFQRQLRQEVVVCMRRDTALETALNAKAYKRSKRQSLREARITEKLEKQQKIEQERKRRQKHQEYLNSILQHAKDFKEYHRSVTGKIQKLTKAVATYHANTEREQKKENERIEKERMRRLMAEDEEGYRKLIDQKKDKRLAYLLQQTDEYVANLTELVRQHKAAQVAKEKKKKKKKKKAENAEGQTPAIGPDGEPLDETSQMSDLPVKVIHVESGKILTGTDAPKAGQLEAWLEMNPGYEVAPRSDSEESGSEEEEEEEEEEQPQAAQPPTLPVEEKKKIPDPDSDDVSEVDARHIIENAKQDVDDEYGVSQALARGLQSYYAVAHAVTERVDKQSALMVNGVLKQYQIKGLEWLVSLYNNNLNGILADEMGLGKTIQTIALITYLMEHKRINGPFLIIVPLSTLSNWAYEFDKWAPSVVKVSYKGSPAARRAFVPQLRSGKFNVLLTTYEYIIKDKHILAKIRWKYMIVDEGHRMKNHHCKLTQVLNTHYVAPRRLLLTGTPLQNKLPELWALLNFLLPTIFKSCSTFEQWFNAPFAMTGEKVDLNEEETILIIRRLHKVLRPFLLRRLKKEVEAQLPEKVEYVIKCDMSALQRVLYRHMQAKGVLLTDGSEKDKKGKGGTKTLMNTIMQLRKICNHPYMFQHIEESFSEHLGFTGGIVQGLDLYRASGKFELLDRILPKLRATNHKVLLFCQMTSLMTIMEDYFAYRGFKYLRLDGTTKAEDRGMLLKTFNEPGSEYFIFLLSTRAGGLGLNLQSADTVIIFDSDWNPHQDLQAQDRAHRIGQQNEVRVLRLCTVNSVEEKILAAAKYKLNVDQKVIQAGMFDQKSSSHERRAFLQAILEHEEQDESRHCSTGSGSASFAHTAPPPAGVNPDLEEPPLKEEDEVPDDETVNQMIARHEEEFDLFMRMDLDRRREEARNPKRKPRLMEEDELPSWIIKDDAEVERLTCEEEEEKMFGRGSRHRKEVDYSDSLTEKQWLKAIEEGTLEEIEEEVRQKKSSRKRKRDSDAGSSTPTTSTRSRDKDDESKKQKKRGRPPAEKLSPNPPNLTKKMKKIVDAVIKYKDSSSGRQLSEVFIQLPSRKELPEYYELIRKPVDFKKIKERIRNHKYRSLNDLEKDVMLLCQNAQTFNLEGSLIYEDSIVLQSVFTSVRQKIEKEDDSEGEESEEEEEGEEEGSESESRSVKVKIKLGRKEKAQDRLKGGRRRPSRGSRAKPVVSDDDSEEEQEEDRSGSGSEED
In short: as §1

| DC50 [1] | Dmax [1] | DC50 [2] | Dmax [2] | HeLa-HiBit-SM4 Dmax (%) [2] | SMILES |
| --- | --- | --- | --- | --- | --- |
| < 10 nM | > 85% | < 10 nM |  | C (C=50%<Dmax<=75%) | O=C1CCC(N2C(=O)c3ccc(N4CC[C@H](CN5C[C@@H]6[C@H](C5)[C@H]6CN5CCN6c7cc(-c8cc(F)ccc8O)nnc7NC[C@H]6C5)[C@@H](F)C4)cc3C2=O)C(=O)N1 (stereo partly drawn) [Example 277, 2-(2,6-dioxopiperidin-3-yl)-5-((3R,4R)-3-fluoro-4-(((1R,5S,6R)-6-(((S)-2-(5-fluoro-2-hydroxyphenyl)-5,6,6a,7,9,10-hexahydro-8H-pyrazino[1′,2′:4,5]pyrazino[2,3-c]pyridazin-8-yl)methyl)-3-azabicyclo[3.1.0]hexan-3-yl)methyl)piperidin-1-yl)isoindoline-1,3-dione] |
| < 10 nM | > 85% | < 10 nM | > 85% |  | CC1(CN2CCN3c4cc(-c5ccccc5O)nnc4NC[C@H]3C2)CCN(CC2CCN(c3ccc4c(c3)CN(C3CCC(=O)NC3=O)C4=O)CC2)CC1 (stereo partly drawn) [Example 250, 3-(5-(4-((4-(((S)-2-(2-hydroxyphenyl)-5,6,6a,7,9,10-hexahydro-8H-pyrazino[1′,2′:4,5]pyrazino[2,3-c]pyridazin-8-yl)methyl)-4-methylpiperidin-1-yl)methyl)piperidin-1-yl)-1-oxoisoindolin-2-yl)piperidine-2,6-dione] |
| < 10 nM | 50 to 75% | 10 to 100 nM | 50 to 75% |  | O=C1CCC(N2C(=O)c3ccc(N4CCC(CN5CCC(NC6CCN7c8cc(-c9ccccc9O)nnc8NCC7C6)CC5)CC4)cc3C2=O)C(=O)N1 (stereo not shown) [Example 253, 2-(2,6-dioxopiperidin-3-yl)-5-(4-((4-((2-(2-hydroxyphenyl)-6,6a,7,8,9,10-hexahydro-5H-pyrido[1′,2′:4,5]pyrazino[2,3-c]pyridazin-8-yl)amino)piperidin-1-yl)methyl)piperidin-1-yl) isoindoline-1,3-dione] |

The next lines start with the compound.

| SMILES | DC50 [1] | Dmax [1] | DC50 [2] | Dmax [2] | HeLa-HiBit-SM4 Dmax (%) [2] |
| --- | --- | --- | --- | --- | --- |
| O=C1CCC(n2c3ccc(CCCN4CCC(N5CCN(C6C[C@@H]7CNc8nnc(-c9ccccc9O)cc8N7C6)CC5)CC4)cc3c3cccnc32)C(=O)N1 (stereo partly drawn) [Example 27, 3-(6-(3-(4-(4-((6aR)-2-(2-hydroxyphenyl)-5,6,6a,7,8,9-hexahydropyrrolo [1′,2′:4,5]pyrazino[2,3-c]pyridazin-8-yl)piperazin-1-yl)piperidin-1-yl)propyl)-9H-pyrido[2,3-b]indol-9-yl)piperidine-2,6-dione] | < 10 nM | 50 to 75% | < 10 nM | 50 to 75% |  |
| CC1CN(CC2CCN(c3cc4c(cc3F)C(=O)N(C3CCC(=O)NC3=O)C4=O)CC2)CCC1CN1CCN2c3cc(-c4ccccc4O)nnc3NC[C@H]2C1 (stereo partly drawn) [Example 165, 2-(2,6-dioxopiperidin-3-yl)-5-fluoro-6-[4-[[4-[[(10S)-4-(2-hydroxyphenyl)-1,5,6,8,12-pentazatricyclo[8.4.0.02,7]tetradeca-2,4,6-trien-12-yl]methyl]-3-methylpiperidin-1-yl]methyl]piperidin-1-yl] isoindole-1,3-dione] | < 10 nM | 75 to 85% | < 10 nM | 75 to 85% |  |
| O=C1CCC(N2Cc3cc(C4CCN(C5CCCN(CCCN6CCN7c8cc(-c9ccccc9O)nnc8NC[C@H]7C6)C5)CC4)ccc3C2=O)C(=O)N1 (stereo partly drawn) [Example 210, 3-(5-(1′-(3-((S)-2-(2-hydroxyphenyl)-5,6,6a,7,9,10-hexahydro-8H-pyrazino[1′,2′:4,5]pyrazino[2,3-c]pyridazin-8-yl)propyl)-[1,3′-bipiperidin]-4-yl)-1-oxoisoindolin-2-yl)piperidine-2,6-dione] | < 10 nM | > 85% | < 10 nM | 75 to 85% |  |
| O=C1CCC(N2C(=O)c3ccc(N4CCC(CN5CCN6c7cc(-c8ccccc8O)nnc7NC[C@H]6C5)CC4)cc3C2=O)C(=O)N1 (stereo partly drawn) [Example 157, 2-(2,6-dioxopiperidin-3-yl)-5-(4-(((S)-2-(2-hydroxyphenyl)-5,6,6a,7,9,10-hexahydro-8H-pyrazino[1′,2′:4,5]pyrazino[2,3-c]pyridazin-8-yl)methyl)piperidin-1-yl)isoindoline-1,3-dione] | < 10 nM | 75 to 85% | 10 to 100 nM | 50 to 75% |  |
